Reference: patent publication US6573076B1, “Gene, group of genes, and novel β-glucosidase” (Ajinomoto Co., Inc., priority 1997, dated 2003)
Like-named read-outs stand apart in the source and are kept apart here.

Tests used:
β-glucosidase (G3ase) [1] = target: T1, β-glucosidase (G3ase) (Komagataeibacter sucrofermentans, UniProt O24749); experiment: Effect of metal ions and chemical agents on β-glucosidase (G3ase) activity; format: biochemical, Acetobacter xylinum subsp. sucrofermentans BPR 2001; details: for activity at 1000 µM: read-out: Relative activity (%)
Protocol: After reaction at 30° C. for 2 hr, a reaction solution (300 μl) of a glucose-measuring kit (Glucose CII test Wako: Wako Pure Chemical Industries, Ltd.) was added to the mixture, and reacted for 15 min at a room temperature, followed by the determination of an amount of glucose based on absorbance at 505 nm.

β-glucosidase (G3ase) [2] = target: T1, β-glucosidase (G3ase); experiment: Inhibition constants of G3ase inhibitors; format: biochemical, Acetobacter xylinum subsp. sucrofermentans BPR 2001
β-glucosidase (G3ase) [3] = target: T1, β-glucosidase (G3ase); experiment: Reactivity of G3ase with cellulosic substrates (glucose produced); format: biochemical, Acetobacter xylinum subsp. sucrofermentans BPR 2001
β-glucosidase (G3ase) [4] = target: T1, β-glucosidase (G3ase); format: biochemical, Acetobacter xylinum subsp. sucrofermentans BPR 2001
[5] = substrate: OC[C@H]1O[C@@H](O[C@H]2[C@H](O)[C@@H](O)[C@H](O[C@H]3[C@H](O)[C@@H](O)[C@H](O[C@H]4[C@H](O)[C@@H](O)[C@H](O[C@H]5[C@H](O)[C@@H](O)C(O)O[C@@H]5CO)O[C@@H]4CO)O[C@@H]3CO)O[C@@H]2CO)[C@H](O)[C@@H](O)[C@@H]1O; experiment: purified protein, by the assay type; format: biochemical, Acetobacter xylinum subsp. sucrofermentans BPR 2001; details: other: substrate of G3ase
[6] = substrate: OC[C@H]1O[C@@H](O[C@H]2[C@H](O)[C@@H](O)[C@H](O[C@H]3[C@H](O)[C@@H](O)C(O)O[C@@H]3CO)O[C@@H]2CO)[C@H](O)[C@@H](O)[C@@H]1O; experiment: purified protein, by the assay type; details: other: substrate of G3ase
[7] = substrate: OC[C@H]1O[C@@H](O[C@H]2[C@H](O)[C@@H](O)[C@H](O[C@H]3[C@H](O)[C@@H](O)[C@H](O[C@H]4[C@H](O)[C@@H](O)[C@H](O[C@H]5[C@H](O)[C@@H](O)[C@H](O[C@H]6[C@H](O)[C@@H](O)C(O)O[C@@H]6CO)O[C@@H]5CO)O[C@@H]4CO)O[C@@H]3CO)O[C@@H]2CO)[C@H](O)[C@@H](O)[C@@H]1O; experiment: purified protein, by the assay type; details: other: substrate of G3ase
[8] = substrate: OC[C@H]1O[C@@H](O[C@H]2[C@H](O)[C@@H](O)[C@H](O[C@H]3[C@H](O)[C@@H](O)[C@H](O[C@H]4[C@H](O)[C@@H](O)C(O)O[C@@H]4CO)O[C@@H]3CO)O[C@@H]2CO)[C@H](O)[C@@H](O)[C@@H]1O; experiment: purified protein, by the assay type; details: other: substrate of G3ase
[9] = compound 1 mM, non-added sample = 100%
[10] = metal ions and chemical agents 1 mM

OCCS [2ME, 2-mercaptoethanol]
Relative activity (%) (β-glucosidase (G3ase) [1]; [9]): 106% | Effect on β-glucosidase (G3ase) activity (in words) (β-glucosidase (G3ase) [1]; [10]): did not affect it adversely

O=C1O[C@H](CO)[C@@H](O)[C@H](O)[C@H]1O [Glucono-δ-lactone]
Ki (β-glucosidase (G3ase) [2]): 760 µM | Type of inhibition (β-glucosidase (G3ase) [2]): Competitive | Type of inhibition (β-glucosidase (G3ase) [2]; listed as glucon-o-δ-lactone): competitively inhibited

O=S(=O)([O-])[O-].[Mg+2] [MgSO4]
Relative activity (%) (β-glucosidase (G3ase) [1]; [9]): 95.2%

cellobiose [G2]
percent ratio of produced glucose against total substrate added (β-glucosidase (G3ase) [3]; reaction time 2 hr): 0.4% | percent ratio of produced glucose against total substrate added (β-glucosidase (G3ase) [3]; reaction time 24 hr): 5.2% | degrading activity of G3ase compared to the other cellooligosaccharides (in words) (β-glucosidase (G3ase) [4]): very low | ko (molecular activity) (β-glucosidase (G3ase) [4]; substrate of G3ase): 3.8 s⁻¹

O=C1CCC(=O)N1Br [NBS, N-bromosuccinimide]
activity at 1000 µM (β-glucosidase (G3ase) [1]; [9]): 0% | Effect on β-glucosidase (G3ase) activity (in words) (β-glucosidase (G3ase) [1]; [10]): completely inactivated

CCCCCCCCCCCCOS(=O)(=O)[O-].[Na+] [SDS, sodium dodecyl sulfate]
activity at 1000 µM (β-glucosidase (G3ase) [1]; [9]): 31.3%

O[C@H]1[C@H](O)[C@@H](O)[C@@H]2O[C@@H]2[C@@H]1O (relative stereo) [Conduritol-βepoxide]
Ki (β-glucosidase (G3ase) [2]): 700 µM | Type of inhibition (β-glucosidase (G3ase) [2]): Competitive | Type of inhibition (β-glucosidase (G3ase) [2]; listed as conduritol-β epoxide): competitively inhibited

O=C(O)CI [IAA, iodo acetate]
Relative activity (%) (β-glucosidase (G3ase) [1]; [9]): 126.5% | Effect on β-glucosidase (G3ase) activity (in words) (β-glucosidase (G3ase) [1]; [10]): did not affect it adversely

OC[C@H]1O[C@@H](O[C@H]2[C@H](O)[C@@H](O)[C@H](O[C@H]3[C@H](O)[C@@H](O)[C@H](O[C@H]4[C@H](O)[C@@H](O)[C@H](O[C@H]5[C@H](O)[C@@H](O)[C@H](O[C@H]6[C@H](O)[C@@H](O)C(O)O[C@@H]6CO)O[C@@H]5CO)O[C@@H]4CO)O[C@@H]3CO)O[C@@H]2CO)[C@H](O)[C@@H](O)[C@@H]1O (some centres unmarked) [G6, cellohexaose]
percent ratio of produced glucose against total substrate added (β-glucosidase (G3ase) [3]; reaction time 2 hr): 24.3% | percent ratio of produced glucose against total substrate added (β-glucosidase (G3ase) [3]; reaction time 24 hr): 28.2%

O=S(=O)([O-])[O-].[Fe+2] [FeSO4]
Relative activity (%) (β-glucosidase (G3ase) [1]; [9]): 91.6%

OC[C@H]1O[C@@H](O[C@H]2[C@H](O)[C@@H](O)[C@H](O[C@H]3[C@H](O)[C@@H](O)C(O)O[C@@H]3CO)O[C@@H]2CO)[C@H](O)[C@@H](O)[C@@H]1O (some centres unmarked) [G3, cellotriose]
percent ratio of produced glucose against total substrate added (β-glucosidase (G3ase) [3]; reaction time 2 hr): 13.1% | percent ratio of produced glucose against total substrate added (β-glucosidase (G3ase) [3]; reaction time 24 hr): 17.5%

O=S(=O)([O-])[O-].[Mn+2] [MnSO4]
Relative activity (%) (β-glucosidase (G3ase) [1]; [9]): 114.5%

[Cl][Hg][Cl] [HgCl2]
Relative activity (%) (β-glucosidase (G3ase) [1]; [9]): 85.5%

[Ca+2].[Cl-].[Cl-] [CaCl2]
Relative activity (%) (β-glucosidase (G3ase) [1]; [9]): 100%

O=C(O)CN(CCN(CC(=O)O)CC(=O)O)CC(=O)O [EDTA, ethylene diamine tetra acetate]
Effect on β-glucosidase (G3ase) activity (in words) (β-glucosidase (G3ase) [1]): did not affect it adversely | Relative activity (%) (β-glucosidase (G3ase) [1]): 100%

O=S(=O)([O-])[O-].[Cu+2] [CuSO4]
Relative activity (%) (β-glucosidase (G3ase) [1]; [9]): 115.7%

O=S(=O)([O-])[O-].[Zn+2] [ZnSO4]
Relative activity (%) (β-glucosidase (G3ase) [1]; [9]): 90.4%

B1: β-glucosidase (G3ase) (Komagataeibacter sucrofermentans) (protein)
chain: RHAHDGGGDQADARARQVLASMSLEDKMSLLFSVDGGGFNGSVAPPGGLGSAAYLRAPQGSGLPDLQISDAGLGVRNPAHIRRNGEAVSLPSGQSTASTWDMDMARQAGVMIGREAWQSGFNILLGGGADLTRDPRGGRNFEYAGEDPLQTGRMVGSTIAGVQSQHVISTLKHYAMNDLETSRMTMSADIDPVAMRESDLLGFEIALETGHPGAVMCSYNRVNDLYACENPYLLNKTLKQDWHYPGFVMSDWGATHSSARAALAGLDQESAGDHTDARPYFRTLLAADVKAGRVPEARINDMAERVVRALFAAGLVDHPAQRGPLDVVTDTLVAQKDEEEGAVLLRNQGNILPLSPTARIAVIGGHADAGVISGGGSSQVDPIGGEAVKGPGKKEWPGDPVYFPSSPLKAMQAEAPGARITYDPGTSIASAVRAARAADVVVVYATQFTFEGMDAPSMHLDDNADALITAVAAANPRTVVVMETGDPVLMPWNSSVAGVLEAWFPGSGGGPAIARLLFGKVAPSGHLTMTFPQAESQLAHPDIAGVTADNVFEMQFHTDQELVYDEGSDVGYRWFDRNHFKPLYPFGYGLTYTTFSTDGLKVTERHGQVTATFNVHNTGTRAGVDVPQVYVGLPDGGARRLAGWQRISLAPGESRQVSVQLEPRLLAHFDGKHDRWSVPSGTFRVWLASCATDDSQQTTMHLHGRTMAP
Km [5]: 1490 µM | kcat [5]: 32.1 s⁻¹ | Km [6]: 3730 µM | kcat [6]: 29.8 s⁻¹ | Km [7]: 1310 µM | kcat [7]: 31.0 s⁻¹ | Km [8]: 2100 µM | kcat [8]: 38.9 s⁻¹
